Several values for one entry are separate records, joined by “and”; a condition that tells them apart may be missing. Identical values can stand only once. No end group written: not given here.
Legend:
[1] = test system: C. albicans strain SC5314; assay: crystal violet based biofilm assay (24 hours, OD600); type: cell-based, Candida albicans; details: for Mean Normalized to vehicle control: biofilm OD600 values normalized to vehicle control, 24 hours; for efficacy in inhibiting formation of biofilm relative to PYY13-36: in vitro, Candida albicans; for inhibition of biofilm formation: crystal violet staining, 10-20 uM of respective peptides
Method: FIG. 13. […] Biofilm formation was measured in an assay that quantitates biofilms by staining with a crystal violet dye. The amount of dye absorbed by the biofilm positively correlates with amount of biofilm present. Amount of dye is measured via an optical density reading at a wavelength of 600 nm (OD600). Biofilm formation is measured over 24 hours in the presence or absence of peptides at 10, 30, or 40 uM concentrations.
(§1) Candida albicans (sc3514 cited in: Romanowski et al. PLOS One 7: e30119, 2012.: incorporated by reference in its entirety) and Candida tropicalis (ATCC #13803) were maintained in frozen glycerol stocks at −80° C. and streaked out on yeast-peptone-dextrose (YPD) agar plates for 48 hours at 30° C. prior to use. Single colonies were selected and cultured in YPD media at 30° C. Biofilm assays were performed using crystal violet straining (Taff et al. Med Mycol 50:214-218, 2012.: incorporated by reference in its entirety) in the presence of 10-20 uM of respective peptides. To induce hyphal growth, strains were placed in YPD+5% FBS or RPMI media at 37° C. for 4 hours. To image hyphal membrane disruption, the DNA binding fluorescent dye, propidium iodide (PI), was added to wells strains in the presence of peptides and imaged under bright field and far red fluorescent conditions. […] To investigate Candida albican virulence gene expression, 10 μL of a 1.0 OD600 culture were placed in 1 mL RPMI at 37° C. with shaking for 8 hours. Cultures were centrifuged at 3000×g for 5 minutes and RNA isolation was performed as described below.
Antifungal activity of peptides described in this application was tested by performing a crystal violet based biofilm assay. In this assay, Candida albicans is induced to form a biofilm in a 96-well plate for 24 hours in the presence or absence of peptide. Biofilm formation is quantitated through crystal violet staining and solubilization followed by optical density reading. […] Data are OD600 values normalized to appropriate within experiment vehicle control. Statistical analysis was performed via 2-Way ANOVA with multiple comparisons post-test. Significance is denoted by: *=p<0.05; **=p<0.01; ***-p<0.001; ****=p<0.0001. ns=not significant.

[2] = test system: Candida albicans hyphae; assay: propidium iodide hyphal permeability assay; type: cell-based; details: N terminus FITC label, during PI assay
Method: as §1
Magainin-2 compromises fungal growth by inserting into and permeabilizing the fungal cell wall. […] Permeabilization of the fungal cell wall was determined by uptake of propidium iodide (PI), a dye that is excluded by intact viable cells. […]

[3] = test system: PYY; assay: ex vivo ileal tissue culture and PYY ELISA; parameters: species or system mice
Method: Tissues were harvested from conventional or germ-free WT mice. Three cm sections of distal ileum were dissected from the mesentery and ligated on one end. Next, Krebs buffer (pH 7.4) was inoculated with either LPS (100 ng/mL) or Carbamoylcholine (10 um) and sealed in the ileal section and incubated in Krebs at 37° C. for 30 minutes. Next, the luminal solutions were retrieved and centrifuged at 3000×g for 3 minutes to remove particulate.

[4] = test system: Candida albicans; assay: Candida albicans culture growth; type: cell-based; details: hyphal inducing conditions (broth culture containing serum)

Substance	Mean Normalized to vehicle control ([1]; 10 μM peptide)	Mean Normalized to vehicle control ([1]; 30 μM peptide)	Mean Normalized to vehicle control ([1]; 40 μM peptide)	other results
ASPEELNRYYASLRHYLNLVTRQRY [AVpeptide 18, (12-36)]	1.11	0.16	0.05	
FITC-labeled PYY: fluorescently (N terminus FITC) labeled PYY				localization of labeled peptide [2]: localized exclusively to the same terminal hyphal cells that take up PI
LPDELNRYYASLRKYLNLVTRQRY [AVpeptide 25, (S13L, E15D, H26K)]		0.01 and 0.02		inhibition of biofilm formation at concentrations lower than PYY13-36 [1]: greatly inhibited biofilm formation by C. albicans at concentrations lower than PYY13-36; efficacy in inhibiting formation of biofilm relative to PYY13-36 [1]: increased inhibition of biofilm formation
LPEELNRYYASLRHYLNLVTRQLY [AVpeptide 11, (S13L; R35L)]			0.99	
LPEELNRYYASLRHYLNLVTRQRY [AVpeptide 10, (S13L)]			0.17	
LPEELNRYYASLRHYLRLVTRQLY [AVpeptide 23, (S13L, N29R, R35L)]	0.03			inhibition of biofilm formation at concentrations lower than PYY13-36 [1]: greatly inhibited biofilm formation by C. albicans at concentrations lower than PYY13-36; efficacy in inhibiting formation of biofilm relative to PYY13-36 [1]: increased inhibition of biofilm formation
LPS				luminal PYY release ([3]; Germ-free (GF) tissues): released only in response to Carb; luminal PYY release ([3]; Specific-Pathogen Free (SPF) tissues): released PYY
PEELNRYYASLRHYLNAVTRQLA [AVpeptide 4, (14-36, L30A; R35L; Y36A)]	1.04 and 0.98	0.89 and 0.94	0.88	
PEELNRYYASLRHYLNAVTRQRY [AVpeptide 2, (14-36, L30A)]	1.05 and 1.02	0.91 and 1.08	1.01	
PEELNRYYASLRHYLNLVTRQLY [AVpeptide 1, (14-36; R35L)]	0.96 and 0.95	0.74 and 0.40	0.14	
PEELNRYYASLRHYLNLVTRQRA [AVpeptide 3, (14-36, Y36A)]	1.00 and 0.94	0.90 and 0.93	0.91	
PYY1-12: N-terminal PYY fragment used as inactive comparison peptide (YPIKPEAPREDA; Peptide YY; UniProt P10082 29-40, looked up, fragment) [reference compound]				inhibition of biofilm formation [1]: not a scrambled peptide control or PYY1-12, were capable of blocking biofilm formation
PYY1-13: PYY peptide composed of amino acids 1-13 (YPIKPEAPGEDAS)				C. albicans culture growth [4]: displayed no antifungal properties
PYY14-36 Modified: PYY14-36 with Arginine replaced by Alanine (PEELNAYYASLAHYLNLVTAQAY; ends and bridges not checked) [reference compound]				inhibition of biofilm formation [1]: reduced the inhibitory effect
PYY 1-36 Modified: PYY with charge modified by replacing Arginine with Alanine (YPIKPEAPGEDASPEELNAYYASLAHYLNLVTAQAY; ends and bridges not checked) [reference compound]				inhibition of biofilm formation [1]: reduced the inhibitory effect
SPDELNRYYASLRKYLNLVTRQRY [AVpeptide 14, (E15D, H26K)]	0.82	0.07	0.07	
SPEELNKYYASLRHYLNLVTRQRY [AVpeptide 27, (R19K)]	0.66	0.08		
SPEELNRLLASLRHLLNLVTRQRY [AVpeptide 32, (Y20L, Y21L, Y27L)]				efficacy in inhibiting formation of biofilm relative to PYY13-36 [1]: increased inhibition of biofilm formation
SPEELNRYLASLRHYLNLVTRQRY [AVpeptide 28, (Y21L)]		0.09 and 0.17		

Substance	Mean Normalized to vehicle control ([1]; 10 μM peptide)	Mean Normalized to vehicle control ([1]; 30 μM peptide)	Mean Normalized to vehicle control ([1]; 40 μM peptide)	other results
SPEELNRYYASLRHYINLVTRQRY [AVpeptide 29, (L28I)]	0.58	0.04		
SPEELNRYYASLRHYLNLVTRQ [AVpeptide 15, (13-34)]	0.96	0.78	0.69	
SPEELNRYYASLRHYLNLVTRQLR [AVpeptide 6]	0.97	0.52	0.28	efficacy in inhibiting formation of biofilm relative to PYY13-36 [1]: reduced efficacy
SPEELNRYYASLRHYLNLVTRQLY [AVpeptide 21, (R35L)]	0.92	0.02		
SPEELNRYYASLRHYLNLVTRQR [AVpeptide 24, (PYY13-35)]	0.83	0.71		efficacy in inhibiting formation of biofilm relative to PYY13-36 [1]: reduced efficacy
SPEELNRYYASLRHYLNLVTRQRR [AVpeptide 5, (Y36R)]	0.64 and 0.76	0.28 and 0.53		
SPEELNRYYASLRHYLNLVTRQVY [AVpeptide 8, (R35V)]	0.97	0.71	0.31	efficacy in inhibiting formation of biofilm relative to PYY13-36 [1]: reduced efficacy
SPEELNRYYASLRHYLNLVTRQYY [AVpeptide 7, (R35Y)]	0.97	0.08	0.33	
SPEELNRYYASLRHYLRLVTRQLY [AVpeptide 9, (N29R; R35L)]			0.05	
SPEELNRYYASLRHYLRLVTRQRY [AVpeptide 22, (N29R)]	0.84	0.37		
SPEELNRYYASLRHYYNLVTRQRY [AVpeptide 12, (L28Y)]	1.01	0.46	0.15	
SPEELNRYYASSRHYLNLVTRQRY [AVpeptide 19, (L24S)]	1.06	1.01	0.97	efficacy in inhibiting formation of biofilm relative to PYY13-36 [1]: reduced efficacy
SPEELNRYYLALRHYLNLVTRQRY [AVpeptide 31, (A22L, S23A)]	0.05	1.00		
SPEELNRYYLSLRHYLNLVTRQRY [AVpeptide 20, (A22L)]	0.47 and 0.52 and 0.62	1.07 and 1.25 and 1.03	1.04	efficacy in inhibiting formation of biofilm relative to PYY13-36 [1]: increased inhibition of biofilm formation
SPEELNRYYTALRHYLNLVTRQRY [AVpeptide 30, (A22T, S23A)]	0.16 and 0.10	0.02		
SPEQLNRYYASLRHYLNLVTRERY [AVpeptide 13, (E16Q, Q34A)]	0.95	0.14	0.07	
YPEEYNRYYASYRHYLNHVTRQRY [AVpeptide 16, (S13Y L17Y L24Y L30H)]	1.06	1.02	0.95	
YPEEYNRYYASYRHYLNLVTRQRY [AVpeptide 17, (S13Y L17Y L24Y)]	0.91	0.94		
